# Laboratory results: patent US4154932A (priority 1977, dated 1979)
# Read-outs that look alike come from different tables or passages of the source.
# How the values were obtained:
# [1] = test system: withdrawn morphine-dependent mice; assay: Substitution for morphine in withdrawn morphine-dependent mice; conditions: 3 to 54 mg/kg sc
# Description: (§1) Buprenorphine and (-)XI were tested for physical dependence liability in mice. […] The compounds were then tested as substitutes for morphine in withdrawn morphine-dependent mice.
# [2] = test system: phenylquinone induced writhings; assay: animal or person; conditions: for ED50: Mus musculus
# Description: In vivo testing was conducted on many of the compounds of the present invention.
# [3] = Physical dependence liability in man (predicted from mouse models); conditions: prediction from the mouse test model
# Description: as §1
# Rat Vocalization = Rat Vocalization (analgetic activity); type: in vivo; conditions: Table 2; for ED50: Rattus norvegicus
# [4] = test system: Straub Tail induced by oxymorphone; assay: Antagonism of oxymorphone-induced Straub Tail (antagonist activity); type: in vivo, mouse; conditions: for ED50: Mus musculus
# Description: ^2 Antagonism of Straub Tail induced by oxymorphone (2 mg/kg, s.c.) i
# [5] = test system: withdrawal jumping (abstinence); assay: Primary physical dependence test in mice (withdrawal jumping on naloxone challenge); conditions: repeated sc injections for two days
# Description: as §1
# [6] = test system: Morphine Antagonism Rat Tail Flick; assay: Morphine antagonism, Rat Tail Flick (antagonist activity); type: in vivo; conditions: Table 3; for ED50: Rattus norvegicus
# Rat Writhing = Rat Writhing (analgetic activity); type: in vivo; conditions: Table 2; for ED50: Rattus norvegicus
# [7] = test system: opioids, oxymorphone and morphine; assay: Antagonist activity, overall comparison of Table 3; type: in vivo
# Cough Response = assay: animal or person; type: in vivo, dog; conditions: for ED50: Canis lupus familiaris
# Text: Comparative Antitussive Effects of (-)-XI, Butorphanol and
# Morphine Sulfate in the Unanesthetized Dog
# [8] = Analgetic activity, overall comparison of Table 2; type: in vivo
smiles,measurement,setting,value
"Oc1ccc2c(c1)[C@]13CCN(CC4CC4)[C@H](C2)[C@@H]1CCOC3 [(-)-XI, (-)-17-Cyclopropylmethyl-3-hydroxy-6-oxamorphinan]",Substitution for morphine,[1],no evidence of substitution for morphine
same,ED50,"[2]; central, read-out: Analgetic activity ED50, Intraventricular",0.0012 mg/kg
same,ED50,"[2]; po, read-out: Analgetic activity ED50, Mouse Writhing po",0.3 mg/kg
same,ED50,"[2]; sc, read-out: Agonist Activity, Phenylquinone Writhing ED50",0.028 mg/kg
same,ED50,"[2]; sc, read-out: Analgetic activity ED50, Mouse Writhing sc",0.028 mg/kg
same,Mouse Writhing po/sc,"[2]; mouse, in vivo",11
same,sc/I. Vent.,"[2]; mouse, in vivo, sc",23
same,Predicted physical dependence liability in man,[3],nil or of a low order
same,ED50,"Rat Vocalization; po, read-out: Analgetic activity ED50, Rat Vocalization po",0.11 mg/kg
same,ED50,"Rat Vocalization; sc, read-out: Analgetic activity ED50, Rat Vocalization sc",0.006 mg/kg
same,Rat Vocalization po/sc,Rat Vocalization; ratio of ED50 po/sc,18
same,ED50,"[4]; sc, mice, Table 1, oxymorphone 2 mg/kg, s.c., read-out: Antagonist Activity, Oxymorphone Straub Tail ED50",0.44 mg/kg
same,ED50,"[4]; po, Table 3, read-out: Antagonist activity ED50, Oxymorphone-Induced Straub Tail po",14 mg/kg
same,ED50,"[4]; sc, Table 3, read-out: Antagonist activity ED50, Oxymorphone-Induced Straub Tail sc",0.44 mg/kg
same,Oxymorphone-Induced Straub Tail po/sc,"[4]; ratio of ED50 po/sc, Table 3",32
same,Withdrawal jumping (primary physical dependence),[5],did not exhibit withdrawal jumping (abstinence)
same,ED50,"[6]; po, read-out: Antagonist activity ED50, Morphine Antagonism Rat Tail Flick po",~3 mg/kg
same,ED50,"[6]; sc, read-out: Antagonist activity ED50, Morphine Antagonism Rat Tail Flick sc",0.26 mg/kg
same,Morphine Antagonism Rat Tail Flick po/sc,[6]; ratio of ED50 po/sc,12
same,ED50,"Rat Writhing; po, read-out: Analgetic activity ED50, Rat Writhing po",0.22 mg/kg
same,ED50,"Rat Writhing; sc, read-out: Analgetic activity ED50, Rat Writhing sc",0.021 mg/kg
same,Rat Writhing po/sc,Rat Writhing; ratio of ED50 po/sc,11
same,"Oral/parenteral potency ratio relative to antagonist activity, comparison",[7],superior to butorphanol and about equal to that of buprenorphine
same,Antagonist potency relative to butorphanol,[7]; blocking the effects of oxymorphone and morphine,about twice as potent as butorphanol
same,Percent Inhibition of Cough Response,"Cough Response; 0.005 mg/kg sc, 15 min",7%
same,Percent Inhibition of Cough Response,"Cough Response; 0.005 mg/kg sc, 30 min",52%
same,Percent Inhibition of Cough Response,"Cough Response; 0.005 mg/kg sc, 60 min",15%
same,Percent Inhibition of Cough Response,"Cough Response; 0.005 mg/kg sc, 120 min",41%
same,Percent Inhibition of Cough Response,"Cough Response; 0.005 mg/kg sc, 180 min",41%
same,Percent Inhibition of Cough Response,"Cough Response; 0.005 mg/kg sc, 240 min",37%
same,Percent Inhibition of Cough Response,"Cough Response; 0.005 mg/kg sc, 300 min",33%
same,Percent Inhibition of Cough Response,"Cough Response; 0.01 mg/kg sc, 15 min",38%
same,Percent Inhibition of Cough Response,"Cough Response; 0.01 mg/kg sc, 30 min",68%
same,Percent Inhibition of Cough Response,"Cough Response; 0.01 mg/kg sc, 60 min",86%
same,Percent Inhibition of Cough Response,"Cough Response; 0.01 mg/kg sc, 120 min",98%
same,Percent Inhibition of Cough Response,"Cough Response; 0.01 mg/kg sc, 180 min",62%
same,Percent Inhibition of Cough Response,"Cough Response; 0.01 mg/kg sc, 240 min",50%
same,Percent Inhibition of Cough Response,"Cough Response; 0.01 mg/kg sc, 300 min",24%
same,Percent Inhibition of Cough Response,"Cough Response; 0.02 mg/kg sc, 15 min",90%
same,Percent Inhibition of Cough Response,"Cough Response; 0.02 mg/kg sc, 30 min",99%
same,Percent Inhibition of Cough Response,"Cough Response; 0.02 mg/kg sc, 60 min",88%
same,Percent Inhibition of Cough Response,"Cough Response; 0.02 mg/kg sc, 120 min",70%
same,Percent Inhibition of Cough Response,"Cough Response; 0.02 mg/kg sc, 180 min",67%
same,Percent Inhibition of Cough Response,"Cough Response; 0.02 mg/kg sc, 240 min",67%
same,Percent Inhibition of Cough Response,"Cough Response; 0.02 mg/kg sc, 300 min",64%
same,Percent Inhibition of Cough Response,"Cough Response; 0.05 mg/kg sc, 15 min",100%
same,Percent Inhibition of Cough Response,"Cough Response; 0.05 mg/kg sc, 30 min",100%
same,Percent Inhibition of Cough Response,"Cough Response; 0.05 mg/kg sc, 60 min",100%
same,Percent Inhibition of Cough Response,"Cough Response; 0.05 mg/kg sc, 120 min",100%
same,Percent Inhibition of Cough Response,"Cough Response; 0.05 mg/kg sc, 180 min",100%
same,Percent Inhibition of Cough Response,"Cough Response; 0.05 mg/kg sc, 240 min",100%
same,Percent Inhibition of Cough Response,"Cough Response; 0.05 mg/kg sc, 300 min",100%
same,ED50,"Cough Response; po, unanesthetized dog, read-out: Oral antitussive ED50",0.04 mg/kg
same,ED50,"Cough Response; sc, unanesthetized dog, read-out: Antitussive ED50",0.006 mg/kg
same,Antitussive potency relative to butorphanol,"Cough Response; dog, in vivo, po",8 times
same,Antitussive potency relative to morphine sulfate,"Cough Response; dog, in vivo, po",16 times
same,Antitussive potency relative to butorphanol,"Cough Response; dog, in vivo, sc",1.7 times
same,Antitussive potency relative to morphine sulfate,"Cough Response; dog, in vivo, sc",approximately 7 times
same,Duration of antitussive activity,"Cough Response; dog, in vivo, sc",significantly longer duration of activity than either butorphanol or morphine sulfate
same,Antitussive activity,"Cough Response; subcutaneous, unanesthetized dog",potent antitussive agent
same,"Oral/parenteral analgetic potency ratio, comparison",[8],comparable to buprenorphine and approximately ten times better than butorphanol
same,"Oral analgetic potency, comparison",[8]; oral,markedly better than butorphanol and equivalent to buprenorphine
